# Patent US5775329A, “Method and compounds for diagnosing coronary artery disease” (Gensia, Inc., priority 1995, dated 1998)
# “Also recorded” adds a separate entry of the source.
# Key:
# α-adrenoreceptor = test: In vitro bioassay for α-adrenergic activity (contraction of aortic rings); format: biochemical; settings: rabbit aortic rings, propranolol pretreated, 37° C., pH=7.4, read-out: α (aorta)
# Method: (§1) In Vitro Bioassays for β1 -, β2 - and α-Adrenoreceptor Activity
# (§2) Functional evaluation of β1 -, β2 - and α-adrenoreceptor activity was performed using in vitro preparations of guinea pig atria, guinea pig trachea, and rabbit aorta, respectively (Young, et. al, Drug Dev. Res. 1994, 32, 19-28).
# For evaluation of α-adrenergic activity, male New Zealand white rabbits (2.5 kg) (Simunek Rabbitry, Vista, Calif.) were sacrificed by carbon dioxide inhalation and the thoracic aorta was quickly excised and placed in Krebs Ringer solution. The aorta was cut into 3-mm rings which were subsequently suspended on hooks in organ baths. The 2.5-ml water-jacketed baths were maintained at 37° C. and filled with Krebs Ringer solution aerated with 95% O2 and 5% CO2. The vascular rings were equilibrated for 1 h following the application of a resting tension of 4 g, during which time the buffer was changed at 15-min intervals. All rings were pretreated with propranolol ([…]) 10 min prior to addition of test compounds. Concentration-response curves were obtained by cumulative addition of compound to the organ bath, the concentration being increased only after maximal response to the preceding concentration was attained. After the final response was attained for each test drug, norepinephrine ([…]) was added to assess maximal contraction. Responses are expressed as a percent of the maximal contraction by norepinephrine.
# (§3) In all experiments, tension was measured by isometric force transducers (52-9529, Harvard Apparatus, Natick, Mass.) coupled to an ink-writing recorder (Gould, Cleveland Ohio). The Krebs Ringer solution contained the following ingredients (mM): NaCl (118.1), NaHCO3 (25.0), D-glucose (11.1), KH2 PO4 (1.2), KCl (4.8), MgSO4 (1.2), CaCl2 (2.5), pH=7.4.
# heart rate = test: Pharmacodynamics in conscious dogs during transdermal iontophoretic administration; format: in vivo, dog; settings: iontophoresis 0.25 mA, 10 min; concentration (mM): isoproterenol 2.5, arbutamine 20, Ex 4 2, Ex 1 3, Ex 11 12, Ex 9 8, Ex 6 8
# Method: Pharmacodynamics in conscious dogs during transdermal iontophoretic administration
# Dogs were trained to lie quietly on a table. Heart rate was monitored by ECG limb leads. Novel catecholamines were administered from a gel-filled electrode placed on the surface of the skin. A second electrode was placed on the skin to complete the electrical circuit. All compounds were delivered using a current of 0.25 mA for a period of 10 minutes. Heart rate was monitored by the ECG, and the T50 of the compound was measured as the time after termination of current required for heart rate to return 50% toward baseline rate. A "delay" time was also measured as the time required for heart rate to begin to fall, following termination of current.
# β2-adrenoreceptor = biological target: T1, β2-adrenoreceptor (Cavia porcellus, UniProt Q8K4Z4); test: In vitro bioassay for β2-adrenergic activity (relaxation of precontracted tracheal rings); format: biochemical; settings: guinea pig tracheal rings precontracted with carbachol, 37° C., pH=7.4, read-out: β2 (trachea)
# T1 construct: the trachea was gently excised and placed in ice-cold aerated Krebs Ringer solution; from tissue; host or cells: guinea pig tracheal rings
# Method: as §1, §2
# For the tracheal assay of β2 -adrenergic activity, male Hartley guinea pigs (350-500 g) were sacrificed by carbon dioxide inhalation and the trachea was gently excised and placed in ice-cold aerated Krebs Ringer solution. β2 -adrenergic activity was assessed as the relaxation of rings following precontraction with carbachol. The trachea were cut into transverse rings containing two cartilage segments, and sutures were tied onto the cartilage on either side of the band of smooth muscle of each ring. The sutures were used to mount the individual rings in a 2.5-ml organ bath and to measure tension with an isometric force transducer. The water-jacketed organ baths maintained the preparation at 37° C. and were filled with Krebs Ringer solution aerated with 95% O2 and 5% CO2. The tracheal rings were equilibrated for 1 h following the application of 0.5 g resting tension. In some cases, equilibrated rings were then treated with the α2 -antagonist rauwolscine ([…]) and the β1 -antagonist atenolol ([…]) prior to precontraction with carbachol ([…]). Precontracted rings used as controls received treatments of saline only. Concentration-response curves were obtained by cumulative addition of drug to the organ bath, the concentration being increased only after the maximal relaxation to the preceding concentration was attained. After the final response was attained, isoproterenol ([…]) was added to assess maximal response for each preparation.
# as §3
# β1-adrenoreceptor = biological target: T2, β1-adrenoreceptor (Cavia porcellus, UniProt H0W3H1); test: In vitro bioassay for β1-adrenergic activity (atrial rate); format: biochemical; settings: guinea pig atria, 37° C., pH=7.4, approximately four atrial preparations per compound
# T2 construct: the hearts were excised and placed in ice-cold oxygenated Krebs Ringer buffer; tissue Charles River Laboratories (animals); host or cells: guinea pig atria (right and left, paired)
# Method: as §1, §2
# For the atrial assay of β1 -adrenergic activity, male Hartley guinea pigs (350-500 g; Charles River Laboratories, Wilmington, Mass.) were sacrificed by decapitation and the hearts were excised and placed in ice-cold oxygenated Krebs Ringer buffer. The atria were separated from the ventricles, leaving the right and left atria attached as a pair. A suture was placed at the apex of each atrial appendage for securing the tissue within the organ bath. The water-jacketed 25-ml organ baths were maintained at 37° C. and filled with Krebs Ringer solution aerated with 95% O2 and 5% CO2. The atrial pairs were equilibrated for at least 20 min after application of 1 g resting tension. β1 -adrenergic activity was assessed using atrial rate (beats per min) and amplitude of contraction (g tension) which were monitored at 1 and 5 min after dosing. Concentration-response curves (10^-11 -10^-4 M) were obtained by cumulative addition of drug to the bath. Following the completion of the dose response curves, isoproterenol was added to assess maximal response of each atrial preparation. EC50 values were calculated from the rate results of approximately four atrial preparations per compound.
# as §3
# [1] = system: heart rate (chronotropic response); test: Pharmacodynamics in conscious dogs during i.v. administration (chronotropic response and offset); format: in vivo, dog
# Method: […] The T50 s were measured from end of infusion.
# Pharmacodynamics in conscious dogs during i.v. administration
# Dogs were trained to lie quietly on a table. Novel catecholamine compounds were administered via a venous catheter acutely placed in a leg vein. […] Heart rate was recorded by computer from ECG limb leads at 5 second intervals throughout the experiment. […]
# T1 sequence (Q8K4Z4 whole entry): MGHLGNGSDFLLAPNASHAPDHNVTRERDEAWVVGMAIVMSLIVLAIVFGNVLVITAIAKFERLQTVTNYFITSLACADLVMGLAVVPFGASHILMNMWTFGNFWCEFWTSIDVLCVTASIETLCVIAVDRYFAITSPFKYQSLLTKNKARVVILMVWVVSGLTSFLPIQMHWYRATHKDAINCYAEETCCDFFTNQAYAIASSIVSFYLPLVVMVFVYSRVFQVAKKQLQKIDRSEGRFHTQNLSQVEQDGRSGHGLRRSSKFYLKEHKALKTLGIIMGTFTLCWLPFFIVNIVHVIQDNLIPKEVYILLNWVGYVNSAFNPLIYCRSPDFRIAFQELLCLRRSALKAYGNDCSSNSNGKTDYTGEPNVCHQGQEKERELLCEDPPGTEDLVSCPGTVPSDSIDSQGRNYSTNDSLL
# T2 sequence (H0W3H1 1-470): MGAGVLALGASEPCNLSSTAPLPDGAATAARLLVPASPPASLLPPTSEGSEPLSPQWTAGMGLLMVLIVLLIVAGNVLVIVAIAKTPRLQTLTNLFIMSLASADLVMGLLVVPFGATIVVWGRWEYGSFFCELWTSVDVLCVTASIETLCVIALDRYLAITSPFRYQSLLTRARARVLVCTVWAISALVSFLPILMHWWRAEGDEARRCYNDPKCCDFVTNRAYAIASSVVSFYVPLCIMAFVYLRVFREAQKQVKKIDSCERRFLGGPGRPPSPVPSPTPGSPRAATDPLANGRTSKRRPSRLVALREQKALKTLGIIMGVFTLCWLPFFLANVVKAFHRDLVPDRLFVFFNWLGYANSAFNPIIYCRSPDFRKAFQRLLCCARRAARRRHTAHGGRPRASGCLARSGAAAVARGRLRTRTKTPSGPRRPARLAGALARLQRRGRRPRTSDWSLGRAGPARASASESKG
structure (smiles),measurement,setting,value
"CSCCCNC[C@H](O)c1ccc(O)c(O)c1 [Example 11, 1-(R)-(3,4-dihydroxyphenyl)-2-(3-methylthiopropylamino)ethanol]",EC50,α-adrenoreceptor,88300 ± 5660 nM
same,Delay (time required for heart rate to begin to fall following termination of current),heart rate,0.8 ± 0.2 min
same,T50 (time after termination of current for heart rate to return 50% toward baseline),heart rate,12.7 ± 3.6 min
same,Δ Heart Rate,heart rate,89 ± 7 beats/min
same,EC50,β2-adrenoreceptor,16 ± 1.2 nM
same,EC50,β1-adrenoreceptor,9.7 ± 2 nM
same,Δ Heart Rate,"[1]; Example 13, i.v. stepwise ascending doses up to 100 ng/kg/min",109 ± 4
same,T50,"[1]; Example 13, i.v., from termination of infusion (100 ng/kg/min) to 50% fall in heart rate towards baseline",3.6 ± 0.2 min
same,T50,"[1]; Table I, i.v., measured from end of infusion at highest dose 100 ng/kg/min",3.6 ± 0.3 min
same,Δ Heart Rate,"[1]; Table I, stable increase over baseline at highest dose (100 ng/kg/min i.v.), ascending doses",109 ± 4 beats/min
same,offset time / T50 (in words),"[1]; i.v., compared with isoproterenol and arbutamine",shorter than for both isoproterenol and arbutamine; also recorded: substantially shorter T50 than isoproterenol and arbutamine
same,T50 (time required for the chronotropic response to decrease by 50%),"[1]; oxalate salt, dog studies",3.6 min
